Results from paper PMC13308190, “Endothelial progenitor cell susceptibility to DNA damaging and DDR-modulating compounds determines endothelial differentiation accuracy” (Stem Cell Research & Therapy, 2026).

Key:
Type in all cases: cell-based, mouse
mESC [1] = assay: RT-qPCR mRNA expression
Procedure: Total RNA was purified using the RNeasy Mini Kit (Qiagen, Hilden, Germany). Reverse transcriptase (RT) reaction was performed with the HighCapacity cDNA Reverse Transcription Kit (Applied Biosystems, Darmstadt, Germany) using 900–2000 ng of RNA. Quantitative RT-qPCR analysis was performed using following conditions: (1) 95 °C–10 min; (2) 45 amplification cycles with 95 °C–15 s, 55 °C–15 s, and 72 °C–17 s; (3) 95 °C–1 min, 55 °C–1 min, 65 °C–5 s. If not stated otherwise, analyses were performed in technical triplicates using pooled samples from two independent experiments (each performed with biological duplicates) by use of a CFX96 cycler (BioRad) and the SensiMix SYBR Kit (Bioline, London, UK). The primers used for mRNA expression analyses are listed in Supplementary Table 1. To ensure the specificity of the amplification product, melting curves were recorded at the end of the run. mRNA expression levels were normalized to β-Actin and Gapdh. Relative mRNA expression in mESC or corresponding untreated controls was set to 1.0. Only changes in gene expression of ≤ 0.5- and ≥ 2-fold were considered as biologically relevant. Fold-changes in gene expression are summarized in Supplementary Table 2.

mESC [2] = assay: Western blot protein expression (densitometry); conditions: mESC 24 h
Method in brief: (§1)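 Whole-cell RIPA extracts (probe sonication) quantified by DC assay; 20 µg protein resolved by SDS-PAGE, blotted to nitrocellulose. Blocked 1 h RT in 5% milk or BSA/TBST; primary antibodies 1:500–5000 overnight 4 °C, peroxidase secondary 1:2000 2 h RT. Chemiluminescent bands imaged, levels by densitometry.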

[3] = tested on: EC d6 (endothelial-like cells); assay: Western blot protein expression (densitometry); conditions: EC d6 24 h; for CHK1 protein / RAD51 protein / gH2AX protein / p-CHK2 protein / p-KAP1 protein / p-RPA32 protein / p-p53 protein: Fig 5D
Method in brief: as §1

[4] = tested on: EC d4 (endothelial progenitor cells); assay: Western blot protein expression (densitometry); conditions: EC d4 48 h; for CHK1 protein / RAD51 protein / gH2AX protein / p-CHK2 protein / p-KAP1 protein / p-RPA32 protein / p-p53 protein: Fig 5D
Method in brief: as §1

EC d4 [5] = assay: ZO1 tight junction immunofluorescence; conditions: EC d4 treated 48 h
EC d4 [6] = assay: EdU incorporation (S-phase activity); conditions: EC d4 48 h
Procedure: S-phase activity of cells was monitored by measuring EdU incorporation using the EdU-Click 488 assay according to the manufacturer’s protocol. Briefly, cells were pulse-treated with 5-ethynyl-2′-deoxyuridine (EdU) for 3 h. Alexa Fluor 488-conjugated reaction cocktail was added (30 min, RT) and nuclei were counterstained with DAPI. The percentage of EdU-positive area/DAPI-positive area was calculated by fluorescence microscopy (Olympus BX43, 20x objective).

[7] = mESC + 10 µM 24 h + 24 h post incubation, Fig 7A
[8] = Fig 5D, concentration 1 (Dox 1/B02 1/EST 1)
[9] = Fig 5D, concentration 2 (Dox 2/B02 2/EST 2)
[10] = concentration 1 (Dox 1/B02 1/EST 1)
[11] = concentration 2 (Dox 2/B02 2/EST 2)

Nc1ccccc1NC(=O)c1ccc(CNC(=O)OCc2cccnc2)cc1 [EST, entinostat]
Cdkn1a mRNA (mESC [1]; [7]): 2.08 Fold of untreated control
Cdkn2a mRNA (mESC [1]; [7]): 5.82 Fold of untreated control
Glb1 mRNA (mESC [1]; [7]): 0.47 Fold of untreated control
Il6 mRNA (mESC [1]; [7]): 6.25 Fold of untreated control
Il8 mRNA (mESC [1]; [7]): 0.83 Fold of untreated control
Tp53 mRNA (mESC [1]; [7]): 0.83 Fold of untreated control
Brca1 mRNA (mESC [1]; mESC + 20 µM 24 h, Fig 5C): 0.52 Fold of mESC
Chk1 mRNA (mESC [1]; mESC + 20 µM 24 h, Fig 5C): 0.27 Fold of mESC
Rad51 mRNA (mESC [1]; mESC + 20 µM 24 h, Fig 5C): 0.29 Fold of mESC
Pgc1a mRNA (mESC [1]; mESC + 20 µM 24 h, Fig 6D): 184.58 Fold of untreated control
H3ac protein (mESC [2]; Fig 1D): 16.6 Fold of mESC
H4ac protein (mESC [2]; Fig 1D): 7426.8 Fold of mESC
aTubac (acetylated α-Tubulin) protein (mESC [2]; Fig 1D): 1.0 Fold of mESC
CHK1 protein (mESC [2]; Fig 4H, Eto, Dox 1, B02, EST): 1.0 Fold of mESC
p-ATR protein (mESC [2]; Fig 4H, Eto, Dox 1, B02, EST): 2.9 Fold of mESC
p-CHK1 protein (mESC [2]; Fig 4H, Eto, Dox 1, B02, EST): 0.1 Fold of mESC
p-RPA32 protein (mESC [2]; Fig 4H, Eto, Dox 1, B02, EST): 1.3 Fold of mESC
p-p53 protein (mESC [2]; Fig 4H, Eto, Dox 1, B02, EST): 0.9 Fold of mESC
CHK1 protein (mESC [2]; [8]): 0.8 Fold of mESC
RAD51 protein (mESC [2]; [8]): 1.4 Fold of mESC
gH2AX protein (mESC [2]; [8]): 7.7 Fold of mESC
p-CHK2 protein (mESC [2]; [8]): 1.0 Fold of mESC
p-KAP1 protein (mESC [2]; [8]): 2.9 Fold of mESC
p-RPA32 protein (mESC [2]; [8]): 0.7 Fold of mESC
p-p53 protein (mESC [2]; [8]): 0.9 Fold of mESC
CHK1 protein (mESC [2]; [9]): 0.7 Fold of mESC
RAD51 protein (mESC [2]; [9]): 1.4 Fold of mESC
gH2AX protein (mESC [2]; [9]): 10.1 Fold of mESC
p-CHK2 protein (mESC [2]; [9]): 1.0 Fold of mESC
p-KAP1 protein (mESC [2]; [9]): 8.2 Fold of mESC
p-RPA32 protein (mESC [2]; [9]): 0.7 Fold of mESC
p-p53 protein (mESC [2]; [9]): 0.8 Fold of mESC
AMPKa protein (mESC [2]; Fig 6E): 0.5 Fold of mESC
GSK3b protein (mESC [2]; Fig 6E): 1.2 Fold of mESC
p-p70SK protein (mESC [2]; Fig 6E): 0.8 Fold of mESC
H3ac protein ([3]; Fig 1D): 7.8 Fold of mESC
H4ac protein ([3]; Fig 1D): 4083.7 Fold of mESC
aTubac (acetylated α-Tubulin) protein ([3]; Fig 1D): 1.0 Fold of mESC
CHK1 protein [3, 10]: 0.6 Fold of mESC
RAD51 protein [3, 10]: 0.6 Fold of mESC
gH2AX protein [3, 10]: 1.3 Fold of mESC
p-CHK2 protein [3, 10]: 0.5 Fold of mESC
p-KAP1 protein [3, 10]: 0.0 Fold of mESC
p-RPA32 protein [3, 10]: < 0.1 Fold of mESC
p-p53 protein [3, 10]: 0.3 Fold of mESC
CHK1 protein [3, 11]: 0.2 Fold of mESC
RAD51 protein [3, 11]: 0.1 Fold of mESC
gH2AX protein [3, 11]: 0.1 Fold of mESC
p-CHK2 protein [3, 11]: 0.3 Fold of mESC
p-KAP1 protein [3, 11]: 0.0 Fold of mESC
p-RPA32 protein [3, 11]: < 0.1 Fold of mESC
p-p53 protein [3, 11]: 0.3 Fold of mESC
AMPKa protein ([3]; Fig 6E): 0.7 Fold of mESC
GSK3b protein ([3]; Fig 6E): 1.7 Fold of mESC
p-p70SK protein ([3]; Fig 6E): 0.7 Fold of mESC
H3ac protein ([4]; Fig 1D): 4.6 Fold of mESC
H4ac protein ([4]; Fig 1D): 1853.2 Fold of mESC
aTubac (acetylated α-Tubulin) protein ([4]; Fig 1D): 0.9 Fold of mESC
CHK1 protein [4, 10]: 0.7 Fold of mESC
RAD51 protein [4, 10]: 1.0 Fold of mESC
gH2AX protein [4, 10]: 9.1 Fold of mESC
p-CHK2 protein [4, 10]: 0.6 Fold of mESC
p-KAP1 protein [4, 10]: 0.0 Fold of mESC
p-RPA32 protein [4, 10]: 0.8 Fold of mESC
p-p53 protein [4, 10]: 0.4 Fold of mESC
CHK1 protein [4, 11]: 1.0 Fold of mESC
RAD51 protein [4, 11]: 0.9 Fold of mESC
gH2AX protein [4, 11]: 8.9 Fold of mESC
p-CHK2 protein [4, 11]: 0.9 Fold of mESC
p-KAP1 protein [4, 11]: 0.0 Fold of mESC
p-RPA32 protein [4, 11]: 0.9 Fold of mESC
p-p53 protein [4, 11]: 0.5 Fold of mESC
AMPKa protein ([4]; Fig 6E): 0.5 Fold of mESC
GSK3b protein ([4]; Fig 6E): 2.3 Fold of mESC
p-p70SK protein ([4]; Fig 6E): 1.6 Fold of mESC
ZO1 containing tight junctions in EC d6 differentiated from treated EC d4 (EC d4 [5]): did not affect
S-phase activity (EdU-positive cells) (EC d4 [6]): not
